Laboratory results published in article PMC12434071, “Platinum-group metal half-sandwich complexes of 1-(α-D-glucopyranosyl)-4-hetaryl-1,2,3-triazoles: synthesis, solution equilibrium studies, and investigation of their anticancer and antimicrobial activities” (Frontiers in Chemistry, 2025).

What was measured:
A2780 cells [1] = experiment: MTT reduction assay on A2780 cells; assay type: cell-based; settings: maximal inhibition; 4 h treatment; maximum concentration 100 µM
Procedure: For MTT assays, 4 × 10^3 A2780 cells were plated into 96-well plates, and for SRB assays, 1.5 × 10^3 A2780 cells were plated into 96-well plates. Cells were treated with the compounds in the concentrations indicated for either 4 h for an MTT assay or for 48 h for an SRB assay. Data are represented as average ± SD, from four biological replicates, with the exception of the MTT dataset of Ir-2b and the SRB datasets of 2b, Ru/Ir-2b, and Ir-3a, which were derived from three biological replicates. Individual assays were performed in duplicate. Values were normalized for vehicle-treated cells, and the absorbance for vehicle-treated cells equals 1. Data are represented as fold change compared to vehicle-treated controls. Normality was assessed using the D'Agostino-Pearson test. Statistical significance was assessed using a two-way ANOVA test followed by Tukey's post hoc test. For better visibility, normality, transformations, statistical tests, and p values are presented in an MS Excel sheet at https://figshare.com/s/3a0aa60b66f3f746f41e. Color code: black-free ligand (2a,b or 3a), khaki-ruthenium complex (Ru-2a,b or Ru-3a), green-iridium complex (Ir-2a,b or Ir-3a).  FIGURE 5 The ruthenium, osmium, and iridium complexes of ligands 4a, 4b, and 5a decrease MTT reduction. For MTT assays, 4 × 10^3 A2780 cells, 3 × 10^3 ID8 cells, or 6 × 10^3 human primary fibroblasts were plated into 96-well plates. Cells were treated with the compounds in the concentrations indicated for 4 h. Data are represented as average ± SD, from four biological replicates on A2780, and from three biological replicates on ID8 and human primary fibroblasts. For the datasets of 5a and Os-5a on human primary fibroblasts, the data represent four biological replicates. Individual assays were performed in duplicate. Values were normalized for vehicle-treated cells, and the absorbance for vehicle-treated cells equals 1. Normality was assessed using the D'Agostino-Pearson test. Statistical significance was assessed using a two-way ANOVA test followed by Tukey's post hoc test. For better visibility, normality, transformations, statistical tests, and p values are presented in an MS Excel sheet at https://figshare.com/s/3a0aa60b66f3f746f41e. Color code: black-free ligand (4a,b or 5a), khaki-ruthenium complex (Ru-4a,b), green-iridium complex (Ir-4a,b), blue-osmium complex (Os-4a,b or Os-5a), and red-rhodium complex (Rh-4a,b). An MTT reduction assay measures the activity of mitochondrial complex I and can be used to detect toxicity ([[…] et al., 2016]). The assay was performed in a manner similar to that described by [[…] et al. (2023b)]. Briefly, cells were plated into 96-well plates the day before the assay. Cells were treated with the compounds for 4 h; then, MTT was added to a 0.5 mg/mL final concentration, and cells were incubated at 37°C in a cell incubator for 40-60 min, as a function of the cell line being assessed. The culture medium was removed, the reduced MTT dye was dissolved in dimethylsulfoxide, and plates were measured in a plate photometer (Thermo Scientific Multiscan GO spectrophotometer, Waltham, MA, United States) at 540 nm. Certain wells were designated to contain vehicle-treated cells on each plate. In calculations, the readings for these wells were considered to 1, and all readings were expressed relative to these values. Statistical analysis was performed using version 8.0.1 of GraphPad Prism. Values were tested for normal distribution using the D'Agostino-Pearson or Shapiro-Wilk normality tests. When necessary, values were log-normalized or normalized using the Box-Cox or two-step normalization method ([Box and Cox, 1964]), as indicated in the MS Excel file listing the values at https://figshare.com/s/3a0aa60b66f3f746f41e. The following statistical test, post hoc test, and the level of significance are indicated in the MS Excel file listing the values at https://figshare.com/s/3a0aa60b66f3f746f41e. […]

A2780 cells [2] = experiment: SRB assay on A2780 cells; assay type: cell-based; settings: maximal inhibition; 48 h treatment; maximum concentration 100 µM
Procedure: For MTT assays, 4 × 10^3 A2780 cells were plated into 96-well plates, and for SRB assays, 1.5 × 10^3 A2780 cells were plated into 96-well plates. Cells were treated with the compounds in the concentrations indicated for either 4 h for an MTT assay or for 48 h for an SRB assay. Data are represented as average ± SD, from four biological replicates, with the exception of the MTT dataset of Ir-2b and the SRB datasets of 2b, Ru/Ir-2b, and Ir-3a, which were derived from three biological replicates. Individual assays were performed in duplicate. Values were normalized for vehicle-treated cells, and the absorbance for vehicle-treated cells equals 1. Data are represented as fold change compared to vehicle-treated controls. Normality was assessed using the D’Agostino–Pearson test. Statistical significance was assessed using a two-way ANOVA test followed by Tukey’s post hoc test. For better visibility, normality, transformations, statistical tests, and p values are presented in an MS Excel sheet at https://figshare.com/s/3a0aa60b66f3f746f41e. Color code: black—free ligand (2a,b or 3a), khaki—ruthenium complex (Ru-2a,b or Ru-3a), green—iridium complex (Ir-2a,b or Ir-3a).  FIGURE 7 The ruthenium, osmium, and iridium complexes of ligands 4a, 4b, and 5a are cytostatic on ovarian cancer models with a good therapeutic index. For SRB assays, 1.5 × 10^3 A2780 cells, 1.5 × 10^3 ID8 cells, or 4 × 10^3 primary fibroblasts were plated into 96-well plates. Cells were treated with the compounds in the concentrations indicated for 48 h. Data are represented as average ± SD, from four biological replicates on A2780 and human primary fibroblasts, except in the case of Os complexes, where experiments were performed in three biological replicates. ID8 cells were assessed in three biological replicates. Individual assays were performed in duplicate. Values were normalized for vehicle-treated cells, and the absorbance for vehicle-treated cells equals 1. Normality was assessed using the D’Agostino–Pearson test. Statistical significance was assessed using a two-way ANOVA test followed by Tukey’s post hoc test. For better visibility, normality, transformations, statistical tests, and p values are presented in an MS Excel sheet at https://figshare.com/s/3a0aa60b66f3f746f41e. Color code: black—free ligand (4a,b or 5a), khaki—ruthenium complex (Ru-4a,b), blue—osmium complex (Os-4a,b or Os-5a), green—iridium complex (Ir-4a,b), and red—rhodium complex (Rh-4a,b). An SRB assay measures protein content of cells in correlation with the cell number in an assay well and can therefore be used to assess cell proliferation or long-term cytostasis ([Skehan et al., 1990]). Cells were seeded into 96-well plates the day before the treatment for the assay. Cells were treated with the various compounds for 48 h. Then, the medium was removed, and cells were fixed with 10% trichloroacetic acid. Fixed cells were washed in distilled water three times, followed by staining with SRB (0.4 m/V% dissolved in 1% acetic acid) for 10 min. Stained cells were washed in 1% acetic acid five times; the acetic acid was removed, and the cells were left to dry. Protein-bound SRB was released by adding 100 µL of 10 mM Tris base. Plates were measured in a plate photometer (Thermo Scientific Multiscan GO spectrophotometer, Waltham, MA, United States) at 540 nm. Certain wells were designated to contain vehicle-treated cells on each plate. […] Statistical analysis was performed using version 8.0.1 of GraphPad Prism. Values were tested for normal distribution using the D’Agostino–Pearson or Shapiro–Wilk normality tests. When necessary, values were log-normalized or normalized using the Box–Cox or two-step normalization method ([Box and Cox, 1964]), as indicated in the MS Excel file listing the values at https://figshare.com/s/3a0aa60b66f3f746f41e. […]

[3] = test system: cisplatin-resistant A2780 cells; settings: ref Kacsir et al., 2023a; cited from earlier work
[4] = pH-potentiometric titration, stability constants (logβ) of ML complexes; assay type: physicochemical; settings: [(η^5-Cp*)Rh]^2+; 0.20 M KCl, 25.0°C
Text: […]. […] Comparing the two metal ion containing systems, the complexation with [(η^6-p-cym)Ru]^2+, starts at a more acidic pH, but hydrolytic processes occur already in the physiological pH range due to the higher affinity of the metal ion to hydrolysis. For the [(η^5-Cp*)Rh]^2+, these processes are shifted towards higher pH; […].
For solution studies, doubly deionized and ultra-filtered water was obtained from a Milli-Q RG (Millipore) water purification system. pH-potentiometric measurements were carried out at a constant ionic strength of 0.20 M KCl and at 25.0°C. Carbonate-free KOH solutions of known concentrations (ca. 0.2 M) were used as titrant. […]. A Mettler Toledo DL50 titrator equipped with a DG114-SC combined glass electrode was used for the pH-potentiometric measurements. […] The titrations were performed in the pH range of 2.0–11.0 in equilibrium-controlled mode, during which the pH equilibrium was assumed to be reached if a change in the measured potential was less than 0.1 mV within 90 s. […] The protonation constants of the ligands and the overall stability constants of the complexes, βp,q,r = [MpHqLr]/[M]^p[H]^q[L]^r (where “M” stands for [(η^5-Cp*)Rh(H2O)3]^2+ and “L” represents the completely deprotonated form of the ligand), were calculated with the aid of the SUPERQUAD ([Gans et al., 1985]) and PSEQUAD ([Zékány and Nagypál, 1985]) computer programs, respectively. […]

[5] = pH-potentiometric titration, protonation constants (pKa) of the ligands; assay type: physicochemical; settings: 0.20 M KCl, 25.0°C; N-heterocyclic ring of the ligand
Procedure: In order to obtain information on the acidbase character of the ligands and on the stoichiometry and stability of the complexes present in aqueous medium, potentiometric titrations were carried out in selected systems. Based on the results, both 3a and 3b, having good enough solubility in water, are capable of releasing one hydrogen ion from the fully protonated forms in the measurable pH range (see Figure 3, “pK”). The calculated pK a values appear in Table 4; these values belong to the N-heterocyclic ring of the ligands. […]. For comparison, the previously prepared β-anomeric pair of 3a, compound 3a-β ([Kacsir et al., 2021]) in Table 4, was also studied.
For solution studies, doubly deionized and ultra-filtered water was obtained from a Milli-Q RG (Millipore) water purification system. pH-potentiometric measurements were carried out at a constant ionic strength of 0.20 M KCl and at 25.0°C. Carbonate-free KOH solutions of known concentrations (ca. 0.2 M) were used as titrant. […]. A Mettler Toledo DL50 titrator equipped with a DG114-SC combined glass electrode was used for the pH-potentiometric measurements. […] The titrations were performed in the pH range of 2.0–11.0 in equilibrium-controlled mode, during which the pH equilibrium was assumed to be reached if a change in the measured potential was less than 0.1 mV within 90 s. […]

| Compound | A2780 MTT max % (A2780 cells [1]) [%] | A2780 SRB max % (A2780 cells [2]) [%] | IC50 [3] [µM] | logβ [ML] [4] | pK a [5] |
| --- | --- | --- | --- | --- | --- |
| CC(=O)OC[C@H]1O[C@H](n2cc(-c3ccccn3)nn2)[C@H](OC(C)=O)[C@@H](OC(C)=O)[C@@H]1OC(C)=O [Complex 2a, 1-(2’,3’,4’,6’-Tetra-O-acetyl-α-D-glucopyranosyl)-4-(pyridin-2-yl)-1,2,3-triazole] | 0 | 0 |  |  |  |
| N.N.[Cl][Pt][Cl] [cisplatin] |  |  | 16.5 |  |  |
| OC[C@H]1O[C@H](n2cc(-c3ccc4ccccc4n3)nn2)[C@H](O)[C@@H](O)[C@@H]1O [Complex 3b, 1-(α-D-Glucopyranosyl)-4-(quinolin-2-yl)-1,2,3-triazole] |  |  |  | 5.55 (3) | 3.56 (1) |
| CC(=O)OC[C@H]1O[C@H](n2cc(-c3ccc4ccccc4n3)nn2)[C@H](OC(C)=O)[C@@H](OC(C)=O)[C@@H]1OC(C)=O [Complex 2b, 1-(2’,3’,4’,6’-Tetra-O-acetyl-α-D-glucopyranosyl)-4-(quinolin-2-yl)-1,2,3-triazole] | 0 | 22.33 |  |  |  |
